Experiments:
[1] = Microsomal stability in human liver microsomes assessed as half life; format: ADME, Microsome
[2] = Microsomal stability in rat liver microsomes assessed as half life; format: ADME, Microsome
[3] = target: T1, Nuclear receptor ROR-gamma (Homo sapiens, UniProt P51449); assay: Antagonist activity at N-terminal GST tagged human RORgamma LBD using fluorescein-D22 as coactivator incubated for 60 mins by Lanthascreen TR-FRET assay
T1 sequence (P51449 whole entry): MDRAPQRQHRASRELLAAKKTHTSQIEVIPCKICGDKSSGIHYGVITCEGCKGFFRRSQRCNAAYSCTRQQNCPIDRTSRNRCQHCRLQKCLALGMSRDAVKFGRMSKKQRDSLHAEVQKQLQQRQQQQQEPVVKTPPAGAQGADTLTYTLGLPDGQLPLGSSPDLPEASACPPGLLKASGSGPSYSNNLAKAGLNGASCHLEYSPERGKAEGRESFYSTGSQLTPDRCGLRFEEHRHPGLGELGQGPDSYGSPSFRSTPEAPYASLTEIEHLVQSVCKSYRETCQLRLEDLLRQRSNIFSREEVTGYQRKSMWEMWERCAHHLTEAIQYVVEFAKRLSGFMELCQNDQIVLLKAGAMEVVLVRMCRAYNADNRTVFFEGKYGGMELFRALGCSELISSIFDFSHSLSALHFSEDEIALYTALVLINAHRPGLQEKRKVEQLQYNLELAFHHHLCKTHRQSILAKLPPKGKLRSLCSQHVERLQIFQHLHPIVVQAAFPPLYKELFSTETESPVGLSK

[4] = target: T1, Nuclear receptor ROR-gamma; assay: Agonist activity at N-terminal GST tagged human RORgamma LBD using fluorescein-D22 as coactivator incubated for 60 mins by Lanthascreen TR-FRET assay
[5] = target: T1, Nuclear receptor ROR-gamma; assay: Agonist activity at human RORgamma in cytostim stimulated human PBMC cells assessed as increase in differentiation of TH17 cells by measuring IL-17 production preincubated with cytostim for 72 hrs by ELISA; format: cell-based
[6] = target: T2, Nuclear receptor ROR-gamma (Homo sapiens) (UniProt P51449); assay: Inverse agonist activity at human RORgamma in cytostim stimulated human PBMC cells assessed as […] in IL-17 production by measuring maximal efficacy preincubated with cytostim for 72 hrs by ELISA relative to control; format: cell-based; conditions: filed as inverse agonist
T2 sequence (whole entry): T1 sequence (P51449 whole entry)

[7] = target: T1, Nuclear receptor ROR-gamma; assay: Antagonist activity at human RORgamma in cytostim stimulated human PBMC cells assessed as decrease in differentiation of TH17 cells by measuring IL-17 production preincubated with cytostim for 72 hrs by ELISA; format: cell-based

Compound	half-life [1] [min]	half-life [2] [min]	EC50 [3] [nM]	EC50 [4] [nM]	EC50 [5] [nM]	Emax [6] [%]	EC50 [7] [nM]
CCS(=O)(=O)c1ccc(CNC(=O)c2ccc3c(c2)cc(Cc2ccccc2Br)n3C(C)C)cc1	15	12					
CCS(=O)(=O)c1ccc(CNC(=O)c2ccc3c(c2)cc(Cc2ccccc2C)n3C(C)C)cc1			44				
CCS(=O)(=O)c1ccc(CNC(=O)c2ccc3c(c2)cc(Cc2ccc(C(F)(F)F)cc2)n3C(C)C)cc1			150			109	109
CCS(=O)(=O)c1ccc(CNC(=O)c2ccc3c(c2)cc(Cc2ccccc2OC)n3C(C)C)cc1	13	12					

Results, then the compound that gave them:

half-life [1] [min]	half-life [2] [min]	EC50 [3] [nM]	EC50 [4] [nM]	EC50 [5] [nM]	Emax [6] [%]	EC50 [7] [nM]	Compound
182	116		11	8			CCS(=O)(=O)c1ccc(CNC(=O)c2ccc3c(c2)cc(Cc2ccc(Cl)cc2C(F)(F)F)n3C(C)C)cc1
39	43						CCS(=O)(=O)c1ccc(CNC(=O)c2ccc3c(c2)cc(Cc2ccccc2C(F)(F)F)n3C(C)C)cc1
20	19	10			93	19	CCS(=O)(=O)c1ccc(CNC(=O)c2ccc3c(c2)cc(Cc2cccc(C(F)(F)F)c2)n3C(C)C)cc1
